Results published in patent US20260138978A1, “POSITIVE ALLOSTERIC MODULATORS OF THE MUSCARINIC ACETYLCHOLINE RECEPTOR M1” (Vanderbilt University, priority 2022, published 2026).
pEC50: −log10 of the molar value.

How the values were obtained:
[1] = biological target: T1, human mAChRM1 (Homo sapiens, UniProt P11229); assay: mAChR M1 cell-based functional assay (calcium mobilization), positive allosteric modulator activity: increase in the EC20 acetylcholine response; conditions: for Emax: PAM mode; for pEC50: increase in the EC20 acetylcholine response, read-out: PAM Activity Human M1 EC50
T1 construct: host or cells: CHO-K1
T1 sequence (P11229 1-460): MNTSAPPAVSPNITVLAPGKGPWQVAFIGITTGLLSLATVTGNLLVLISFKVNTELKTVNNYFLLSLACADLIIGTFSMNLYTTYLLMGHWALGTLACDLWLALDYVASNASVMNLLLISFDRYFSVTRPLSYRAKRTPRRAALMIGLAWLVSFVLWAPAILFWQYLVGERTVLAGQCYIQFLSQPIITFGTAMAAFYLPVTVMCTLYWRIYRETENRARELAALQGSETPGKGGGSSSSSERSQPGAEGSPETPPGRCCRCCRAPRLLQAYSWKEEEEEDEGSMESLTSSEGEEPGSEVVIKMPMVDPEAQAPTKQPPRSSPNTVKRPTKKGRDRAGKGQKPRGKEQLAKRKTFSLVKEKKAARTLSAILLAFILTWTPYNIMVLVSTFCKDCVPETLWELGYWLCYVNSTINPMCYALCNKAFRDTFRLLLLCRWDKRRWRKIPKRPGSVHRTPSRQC
Method in brief: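 Potentiation is scored as the rise in an EC20 acetylcholine-evoked calcium signal across 11-point (1:3) compound series, fitted with a four-parameter logistic equation to give EC50 and Emax. Read-out is Fluo-4 fluorescence ratio in hM1-transfected CHO-K1 cells, measured kinetically on FDSS.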

[2] = biological target: T1, human mAChRM1; assay: mAChR M1 cell-based functional assay (calcium mobilization), agonist activity upon compound addition, Emax relative to acetylcholine maximum
Method in brief: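 Emax is given as a percentage of the maximal acetylcholine response, from four-parameter curves of compound-evoked calcium mobilization. Human M1-transfected CHO-K1 cells carried Fluo-4 dye, and compound (11 concentrations, 1:3 steps) was applied at 4 s of a 300 s kinetic fluorescence recording.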

[3] = calcium mobilization upon compound addition

| SMILES | Emax [1] [%] | pEC50 [1] | Agonist Activity Human M1 EC50 [2, 3] | pEC50 [2, 3] | Emax ([2]; relative to the maximum for acetylcholine) [%] |
| --- | --- | --- | --- | --- | --- |
| Cn1cc2cc(-c3cc(F)c(CN4Cc5cccc(F)c5C4=O)cc3F)cc(C(C)(C)O)c2n1 [Compound 169, 2-(2,5-difluoro-4-(7-(2-hydroxypropan-2-yl)-2-methyl-2H-indazol-5-yl)benzyl)-7-fluoroisoindolin-1-one] | 76 | 6.23 | inactive |  |  |
| Cn1cc2cc(-c3ccc(CN4Cc5cccc(F)c5C4=O)c(F)c3F)cc(C(C)(C)O)c2n1 [Compound 170, 2-(2,3-difluoro-4-(7-(2-hydroxypropan-2-yl)-2-methyl-2H-indazol-5-yl)benzyl)-7-fluoroisoindolin-1-one] | 71 | 5.71 | inactive |  |  |
| Cn1cc2cc(-c3cc(F)c(CN4Cc5cccc(F)c5C4=O)c(Cl)c3)cc(C(C)(C)O)c2n1 [Compound 171, 2-(2-chloro-6-fluoro-4-(7-(2-hydroxypropan-2-yl)-2-methyl-2H-indazol-5-yl)benzyl)-7-fluoroisoindolin-1-one] | 75 | ≤ 5.00 | inactive |  |  |
| Cn1cc2c(-c3cc(F)c(CN4Cc5ccccc5C4=O)c(F)c3)ccc(C(C)(C)O)c2n1 [Compound 172, 2-(2,6-difluoro-4-(7-(2-hydroxypropan-2-yl)-2-methyl-2H-indazol-4-yl)benzyl)isoindolin-1-one] | 85 | 6.81 | inactive |  |  |
| Cn1cc2c(-c3cc(F)c(CN4Cc5ncc(Br)cc5C4=O)c(F)c3)ccc(C(C)(C)O)c2n1 [Compound 173, 3-bromo-6-(2,6-difluoro-4-(7-(2-hydroxypropan-2-yl)-2-methyl-2H-indazol-4-yl)benzyl)-6,7-dihydro-5H-pyrrolo[3,4-b]pyridin-5-one] | 75 | 6.38 | inactive |  |  |
| Cc1cnc2c(c1)C(=O)N(Cc1c(F)cc(-c3ccc(C(C)(C)O)c4nn(C)cc34)cc1F)C2 [Compound 174, 6-(2,6-difluoro-4-(7-(2-hydroxypropan-2-yl)-2-methyl-2H-indazol-4-yl)benzyl)-3-methyl-6,7-dihydro-5H-pyrrolo[3,4-b]pyridin-5-one] | 80 | 6.27 |  | ≤ 5.00 | 17 |
| Cn1cc2c(-c3cc(F)c(CN4Cc5ncc(C6CC6)cc5C4=O)c(F)c3)ccc(C(C)(C)O)c2n1 [Compound 175, 3-cyclopropyl-6-(2,6-difluoro-4-(7-(2-hydroxypropan-2-yl)-2-methyl-2H-indazol-4-yl)benzyl)-6,7-dihydro-5H-pyrrolo[3,4-b]pyridin-5-one] | 74 | 5.59 | inactive |  |  |
| CCc1cnc2c(c1)C(=O)N(Cc1c(F)cc(-c3ccc(C(C)(C)O)c4nn(C)cc34)cc1F)C2 [Compound 176, 6-(2,6-difluoro-4-(7-(2-hydroxypropan-2-yl)-2-methyl-2H-indazol-4-yl)benzyl)-3-ethyl-6,7-dihydro-5H-pyrrolo[3,4-b]pyridin-5-one] | 78 | 5.96 | inactive |  |  |
| CC(C)c1cnc2c(c1)C(=O)N(Cc1c(F)cc(-c3ccc(C(C)(C)O)c4nn(C)cc34)cc1F)C2 [Compound 177, 6-(2,6-difluoro-4-(7-(2-hydroxypropan-2-yl)-2-methyl-2H-indazol-4-yl)benzyl)-3-isopropyl-6,7-dihydro-5H-pyrrolo[3,4-b]pyridin-5-one] | 75 | 5.29 | inactive |  |  |
